US9833497B2, “Human originated EGF domain proteins and use of the same” (CHENGDU SOURCEBIO LIMITED-LIABILITY COMPANY, priority 2013, dated 2017)

Tests used:
Assay type in all cases: cell-based
[1] = system: E. coli DH5α; assay: Antibacterial activity: MIC and growth curve against E. coli DH5α in 96-well plate; settings: minimal inhibitory concentration against E. coli DH5α; 96-well plate, 5×10^5 CFU/mL, 37° C., judged after 8 h
In short: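 Log-phase DH5α (OD600 about 0.5, 37° C, 185 rpm in LB) was pelleted, resuspended in fresh LB and seeded at 5×10^5 CFU/mL with recombinant protein at 50, 25 and 12.5 μg/mL (two-fold series), in triplicate. Plates were shaken at 175 rpm, 37° C, and OD600 was read every 30 min. MIC was the lowest concentration with no growth.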

[2] = system: E. coli BL21; assay: MIC against Gram-negative bacteria: E. coli BL21; settings: for MIC against E. coli BL21 / MIC (μg/mL) E. coli BL21 / MIC E. coli BL21: 5×10^5 CFU/mL; for MIC E. coli BL21: two-fold serial dilution
In short: (§1)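 Read-out is absence of bacterial growth, with MIC set at the lowest recombinant protein concentration achieving it. Bacteria, pre-grown in LB to McFarland 0.5 and resuspended, were exposed at 5×10^5 CFU/mL to two-fold diluted human EGF domain proteins in triplicate at 37° C, 175 rpm.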

[3] = system: Pseudomonas aeruginosa; assay: MIC against Gram-negative bacteria: Pseudomonas aeruginosa; settings: for MIC against P. aeruginosa / MIC (μg/mL) P. aeruginosa / MIC P. aeruginosa: 5×10^5 CFU/mL; for MIC P. aeruginosa: two-fold serial dilution
In short: as §1

[4] = system: Klebsiella pneumonia; assay: MIC against Gram-negative bacteria: Klebsiella pneumonia; settings: for MIC against K. pneumonia / MIC (μg/mL) K. pneumonia / MIC K. pneumonia: 5×10^5 CFU/mL; for MIC K. pneumonia: two-fold serial dilution
In short: as §1

[5] = system: Enterobacter cloacae; assay: MIC against Gram-negative bacteria: Enterobacter cloacae; settings: for MIC against E. cloacae / MIC (μg/mL) E. cloacae / MIC E. cloacae: 5×10^5 CFU/mL; for MIC E. cloacae: two-fold serial dilution
In short: as §1

[6] = system: Aeromonas hydrophila; assay: MIC against Gram-negative bacteria: Aeromonas hydrophila; settings: for MIC against A. hydrophila / MIC (μg/mL) A. hydrophila / MIC A. hydrophila: 5×10^5 CFU/mL; for MIC A. hydrophila: two-fold serial dilution
In short: as §1

[7] = system: Citrobacter diversus; assay: MIC against Gram-negative bacteria: Citrobacter diversus; settings: for MIC against C. diversus / MIC (μg/mL) C. diversus / MIC C. diversus: 5×10^5 CFU/mL; for MIC C. diversus: two-fold serial dilution
In short: as §1

[8] = system: Moraxella catarrhalis; assay: MIC against Gram-negative bacteria: Moraxella catarrhalis; settings: for MIC against M. catarrhalis / MIC (μg/mL) M. catarrhalis / MIC M. catarrhalis: 5×10^5 CFU/mL; for MIC M. catarrhalis: two-fold serial dilution
In short: as §1

[9] = system: Proteus mirabilis; assay: MIC against Gram-negative bacteria: Proteus mirabilis; settings: for MIC against P. mirabilis / MIC (μg/mL) P. mirabilis / MIC P. mirabilis: 5×10^5 CFU/mL; for MIC P. mirabilis: two-fold serial dilution
In short: as §1

[10] = system: Proteus vulgaris; assay: MIC against Gram-negative bacteria: Proteus vulgaris; settings: for MIC against P. vulgaris / MIC (μg/mL) P. vulgaris / MIC P. vulgaris: 5×10^5 CFU/mL; for MIC P. vulgaris: two-fold serial dilution
In short: as §1

[11] = system: Serratia marcescens; assay: MIC against Gram-negative bacteria: Serratia marcescens; settings: for MIC against S. marcescens / MIC (μg/mL) S. marcescens / MIC S. marcescens: 5×10^5 CFU/mL; for MIC S. marcescens: two-fold serial dilution
In short: as §1

[12] = E. coli BL21, 10 h cultivation at 37° C.
[13] = Pseudomonas aeruginosa, 10 h cultivation at 37° C.
[14] = Klebsiella pneumonia, 10 h cultivation at 37° C.
[15] = Enterobacter cloacae, 10 h cultivation at 37° C.
[16] = Aeromonas hydrophila, 10 h cultivation at 37° C.
[17] = Citrobacter diversus, 10 h cultivation at 37° C.
[18] = Moraxella catarrhalis, 10 h cultivation at 37° C.
[19] = Proteus mirabilis, 10 h cultivation at 37° C.
[20] = Proteus vulgaris, 10 h cultivation at 37° C.
[21] = Serratia marcescens, 10 h cultivation at 37° C.
[22] = E. coli BL21, 96-well plate, 37° C., 10 h
[23] = Pseudomonas aeruginosa, 96-well plate, 37° C., 10 h
[24] = Klebsiella pneumonia, 96-well plate, 37° C., 10 h
[25] = Enterobacter cloacae, 96-well plate, 37° C., 10 h
[26] = Aeromonas hydrophila, 96-well plate, 37° C., 10 h
[27] = Citrobacter diversus, 96-well plate, 37° C., 10 h
[28] = Moraxella catarrhalis, 96-well plate, 37° C., 10 h
[29] = Proteus mirabilis, 96-well plate, 37° C., 10 h
[30] = Proteus vulgaris, 96-well plate, 37° C., 10 h
[31] = Serratia marcescens, 96-well plate, 37° C., 10 h
[32] = P. aeruginosa, 10 h cultivation at 37° C.
[33] = K. pneumonia, 10 h cultivation at 37° C.
[34] = E. cloacae, 10 h cultivation at 37° C.
[35] = A. hydrophila, 10 h cultivation at 37° C.
[36] = C. diversus, 10 h cultivation at 37° C.
[37] = M. catarrhalis, 10 h cultivation at 37° C.
[38] = P. mirabilis, 10 h cultivation at 37° C.
[39] = P. vulgaris, 10 h cultivation at 37° C.
[40] = S. marcescens, 10 h cultivation at 37° C.

PRT1424 (CQMFCNQTACPADCDPNTQASCECPEGYILDDGFICT; listed as Homo sapiens)
MIC [1]: 50 µg/mL
MIC against E. coli BL21 [2, 12]: 12.5 µg/mL
MIC against P. aeruginosa [3, 13]: 50 µg/mL
MIC against K. pneumonia [4, 14]: 12.5 µg/mL
MIC against E. cloacae [5, 15]: 50 µg/mL
MIC against A. hydrophila [6, 16]: 12.5 µg/mL
MIC against C. diversus [7, 17]: 25 µg/mL
MIC against M. catarrhalis [8, 18]: 50 µg/mL
MIC against P. mirabilis [9, 19]: 25 µg/mL
MIC against P. vulgaris [10, 20]: 12.5 µg/mL
MIC against S. marcescens [11, 21]: 25 µg/mL

PRT74 (CDCFPHGSHSRTCDMATGQCACKPGVIGRQCNRCDNPFAEVTTLGCEV; listed as Homo sapiens)
MIC [1]: 50 µg/mL
MIC (μg/mL) E. coli BL21 [2, 22]: 12.5 µg/mL
MIC (μg/mL) P. aeruginosa [3, 23]: 25 µg/mL
MIC (μg/mL) K. pneumonia [4, 24]: 50 µg/mL
MIC (μg/mL) E. cloacae [5, 25]: 25 µg/mL
MIC (μg/mL) A. hydrophila [6, 26]: 12.5 µg/mL
MIC (μg/mL) C. diversus [7, 27]: 12.5 µg/mL
MIC (μg/mL) M. catarrhalis [8, 28]: 12.5 µg/mL
MIC (μg/mL) P. mirabilis [9, 29]: 12.5 µg/mL
MIC (μg/mL) P. vulgaris [10, 30]: 12.5 µg/mL
MIC (μg/mL) S. marcescens [11, 31]: 25 µg/mL

PRT1081 (APNPCEANGGQGPCSHLCLINYNRTVSCACPHLMKLHKDNTTCY; listed as Homo sapiens)
MIC [1]: 25 µg/mL
MIC E. coli BL21 ([2]; 10 h cultivation at 37° C.): 12.5 µg/mL
MIC P. aeruginosa ([3]; 10 h cultivation at 37° C.): 50 µg/mL
MIC K. pneumonia ([4]; 10 h cultivation at 37° C.): 12.5 µg/mL
MIC E. cloacae ([5]; 10 h cultivation at 37° C.): 50 µg/mL
MIC A. hydrophila ([6]; 10 h cultivation at 37° C.): 12.5 µg/mL
MIC C. diversus ([7]; 10 h cultivation at 37° C.): 50 µg/mL
MIC M. catarrhalis ([8]; 10 h cultivation at 37° C.): 12.5 µg/mL
MIC P. mirabilis ([9]; 10 h cultivation at 37° C.): 25 µg/mL
MIC P. vulgaris ([10]; 10 h cultivation at 37° C.): 50 µg/mL
MIC S. marcescens ([11]; 10 h cultivation at 37° C.): 12.5 µg/mL

PRT797 (WGPNCSVSCSCENGGSCSPEDGSCECAPGFRGPLCQ; listed as Homo sapiens)
MIC [1]: 50 µg/mL
MIC (μg/mL) E. coli BL21 [2, 12]: 12.5 µg/mL
MIC (μg/mL) P. aeruginosa [3, 32]: 50 µg/mL
MIC (μg/mL) K. pneumonia [4, 33]: 25 µg/mL
MIC (μg/mL) E. cloacae [5, 34]: 50 µg/mL
MIC (μg/mL) A. hydrophila [6, 35]: 12.5 µg/mL
MIC (μg/mL) C. diversus [7, 36]: 50 µg/mL
MIC (μg/mL) M. catarrhalis [8, 37]: 12.5 µg/mL
MIC (μg/mL) P. mirabilis [9, 38]: 12.5 µg/mL
MIC (μg/mL) P. vulgaris [10, 39]: 12.5 µg/mL
MIC (μg/mL) S. marcescens [11, 40]: 12.5 µg/mL

PRT545 (CNCSGPGIQELTDPTCDTDSGQCKCRPNVTGRRCDTCSPGFHGYPRCRP; listed as Homo sapiens)
MIC [1]: 12.5 µg/mL
MIC against E. coli BL21 ([2]; 96-well plate, 37° C., 10 h): 12.5 µg/mL
MIC against P. aeruginosa ([3]; 96-well plate, 37° C., 10 h): 12.5 µg/mL
MIC against K. pneumonia ([4]; 96-well plate, 37° C., 10 h): 25 µg/mL
MIC against E. cloacae ([5]; 96-well plate, 37° C., 10 h): 12.5 µg/mL
MIC against A. hydrophila ([6]; 96-well plate, 37° C., 10 h): 25 µg/mL
MIC against C. diversus ([7]; 96-well plate, 37° C., 10 h): 12.5 µg/mL
MIC against M. catarrhalis ([8]; 96-well plate, 37° C., 10 h): 12.5 µg/mL
MIC against P. mirabilis ([9]; 96-well plate, 37° C., 10 h): 12.5 µg/mL
MIC against P. vulgaris ([10]; 96-well plate, 37° C., 10 h): 12.5 µg/mL
MIC against S. marcescens ([11]; 96-well plate, 37° C., 10 h): 50 µg/mL

PRT76 (EVDLCYSRPCGPHGRCRSREGGYTCLCRDGYTGEHCE; listed as Homo sapiens)
MIC [1]: 25 µg/mL
MIC (μg/mL) E. coli BL21 [2, 22]: 12.5 µg/mL
MIC (μg/mL) P. aeruginosa [3, 23]: 25 µg/mL
MIC (μg/mL) K. pneumonia [4, 24]: 12.5 µg/mL
MIC (μg/mL) E. cloacae [5, 25]: 25 µg/mL
MIC (μg/mL) A. hydrophila [6, 26]: 12.5 µg/mL
MIC (μg/mL) C. diversus [7, 27]: 25 µg/mL
MIC (μg/mL) M. catarrhalis [8, 28]: 100 µg/mL
MIC (μg/mL) P. mirabilis [9, 29]: 12.5 µg/mL
MIC (μg/mL) P. vulgaris [10, 30]: 12.5 µg/mL
MIC (μg/mL) S. marcescens [11, 31]: 50 µg/mL

PRT901 (DINECVLSPCRHGASCQNTHGGYRCHCQAGYSGRNCE; listed as Homo sapiens)
MIC [1]: 25 µg/mL
MIC [2, 12]: 25 µg/mL
MIC [3, 32]: 12.5 µg/mL
MIC [4, 33]: 50 µg/mL
MIC [5, 34]: 25 µg/mL
MIC [6, 35]: 12.5 µg/mL
MIC [7, 36]: 25 µg/mL
MIC [8, 37]: 50 µg/mL
MIC [9, 38]: 25 µg/mL
MIC [10, 39]: 12.5 µg/mL
MIC [11, 40]: 25 µg/mL

PRT1443 (NHMPCPENLNGYCIHGKCEFIYSTQKASCRCESGYTGQHCE; listed as Homo sapiens)
MIC [1]: 25 µg/mL
MIC against E. coli BL21 [2, 12]: 50 µg/mL
MIC against P. aeruginosa [3, 13]: 25 µg/mL
MIC against K. pneumonia [4, 14]: 12.5 µg/mL
MIC against E. cloacae [5, 15]: 25 µg/mL
MIC against A. hydrophila [6, 16]: 50 µg/mL
MIC against C. diversus [7, 17]: 25 µg/mL
MIC against M. catarrhalis [8, 18]: 25 µg/mL
MIC against P. mirabilis [9, 19]: 12.5 µg/mL
MIC against P. vulgaris [10, 20]: 25 µg/mL
MIC against S. marcescens [11, 21]: 50 µg/mL

PRT1072 (TQQVCAGYCANNSTCTVNQGNQPQCRCLPGFLGDRCQ; listed as Homo sapiens)
MIC [1]: 50 µg/mL
MIC E. coli BL21 ([2]; 10 h cultivation at 37° C.): 12.5 µg/mL
MIC P. aeruginosa ([3]; 10 h cultivation at 37° C.): 12.5 µg/mL
MIC K. pneumonia ([4]; 10 h cultivation at 37° C.): 25 µg/mL
MIC E. cloacae ([5]; 10 h cultivation at 37° C.): 50 µg/mL
MIC A. hydrophila ([6]; 10 h cultivation at 37° C.): 12.5 µg/mL
MIC C. diversus ([7]; 10 h cultivation at 37° C.): 50 µg/mL
MIC M. catarrhalis ([8]; 10 h cultivation at 37° C.): 12.5 µg/mL
MIC P. mirabilis ([9]; 10 h cultivation at 37° C.): 12.5 µg/mL
MIC P. vulgaris ([10]; 10 h cultivation at 37° C.): 12.5 µg/mL
MIC S. marcescens ([11]; 10 h cultivation at 37° C.): 12.5 µg/mL

PRT964 (NIDDCASNPCTFGVCRDGINRYDCVCQPGFTGPLCN; listed as Homo sapiens)
MIC [1]: 12.5 µg/mL
MIC [2, 12]: 25 µg/mL
MIC [3, 32]: 50 µg/mL
MIC [4, 33]: 25 µg/mL
MIC [5, 34]: 12.5 µg/mL
MIC [6, 35]: 25 µg/mL
MIC [7, 36]: 50 µg/mL
MIC [8, 37]: 25 µg/mL
MIC [9, 38]: 25 µg/mL
MIC [10, 39]: 12.5 µg/mL
MIC [11, 40]: 50 µg/mL
